According to patent publication EP4458977A1, “SELF-ASSEMBLING PEPTIDE AMPHIPHILES AS RETROVIRAL TRANSDUCTION ENHANCERS” (Max-Planck-Gesellschaft zur Förderung der Wissenschaften …, priority 2023, dated 2024):
Where “and” joins values, the source holds several entries; their conditions need not be identical. Identical values can stand only once. Entries after “also recorded” stand apart in the source; their conditions may differ. Where a SMILES comes first, the peptide text is derived from it. The star is where a group is joined. Palmitoyl = CCCCCCCCCCCCCCCC(=O)*; Lauroyl = CCCCCCCCCCCC(=O)*

Assays:
[1] = Zeta-potential measurement (dynamic light scattering); type: physicochemical; settings: for Zeta Potential / mV: 1 mg/mL, PBS; for Count Rate / kcps: derived count rate of scattered light during zeta-potential measurements
In short: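 Peptide at 1 mg mL-1 stock was diluted tenfold in 1 mM KCl and measured by dynamic light scattering in triplicate. The derived count rate served as a light-scattering and turbidity indicator of microscopic aggregation.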

[2] = Thioflavin T (ThT) fluorescence assay; type: physicochemical; set-up: key to ThT: + = ThT active; - = no ThT fluorescence observed; settings: for ThT: ThT fluorescence, 1 mg/mL, PBS; for N-fold ThT-fluorescence: relative to PBS control
In short: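 ThT fluorescence of peptide fibrils judged against a PBS/10% DMSO control; fibrils scored ThT-active when intensity was at least twice that control.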

[3] = ATR-FT-IR determination of β-sheet content; type: physicochemical; settings: for β-sheet content / %: peak integration of parallel β-sheet at 1630 cm-1, 2nd derivative of ATR-IR spectra
In short: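 From second-derivative spectra, β-sheet amount is the 1630 cm-1 integral over the 1650-1700 cm-1 (native) region. Spectra were taken on solid, lyophilized fibrils via diamond-crystal ATR, averaging 64 scans at 2 cm^-1 resolution.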

[4] = TEM of peptide assemblies (fibril formation / assembly); type: physicochemical; set-up: key to Fibril Formation: "1" means fibril formation observed; "0" means no fibrils observed; settings: for Assembly without hydrophob residue: corresponding peptide without hydrophobic moiety; for Assembly: peptide amphiphile; for Fibril Formation: via TEM; for TEM morphology (in words): 1 mg/mL in PBS
In short: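 Peptides predissolved in DMSO at 10 mg/mL (stock), diluted in PBS to 650 µM or 1 mg/mL final and incubated 1 d at rt (20–25 °C) to form fibrils. Other concentrations obtained by diluting preformed fibrils; assemblies imaged by TEM.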

HeLa cells [5] = experiment: Confocal laser scanning microscopy and degradation study with PA1-3 and HeLa cells; type: cell-based; settings: for degraded over the course of 3 days in the presence of HeLa cells: 4 µg peptide added to 40,000 cells; for association with cellular membranes: HeLa cells, 30 min
Description: 4 µL of the preformed peptide fibrils (1 mg mL^-1) were diluted with 4 µL Proteostat (Enzo Life Science, 1 µL stock in 999 µL PBS) and incubated for 10 min and further diluted with medium to receive a final peptide concentration of 20 µg mL^-1. The nucleus of the HeLa cells was stained with Hoechst 33342 (NucBlue™, Thermo Fisher Scientific). The peptide solution was transferred to the HeLa cells and incubated for 30 min at 37°C before washing three times with PBS. […] For the evaluation of aggregate degradation, the samples were further incubated at 37°C for 3 d and analyzed without any additional washing step. […] The number of aggregates were determined by accumulating the number of aggregates larger than 10 µm^2 in an area of 581.25 × 581.25 µm, repeated in three technical triplicates.

HeLa cells [6] = experiment: Confocal laser scanning microscopy and degradation study with PA library and HeLa cells; type: cell-based; settings: for Degradability / % (rel. to initial particles > 10 µm^2): 3 d relative to 30 min; for aggregate number decreases / degraded in presence of HeLa cells within 3 days: d3 relative to d0
In short: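 HeLa cells (20,000/well) got Proteostat-stained PAs (2 µg peptide per 20.000 cells) with Hoechst nuclear stain, 30 min at 37°C, PBS-washed, then held 3 d at 37°C unwashed. Confocal imaging at d0 and d3 counted aggregates >10 µm^2 in 1008 × 1008 µm, three technical replicates. Degradation taken as d3/d0 aggregate number.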

Jurkat cells = experiment: γ-retroviral transduction assay (GALV-RV, GFP+ cells); type: cell-based
Description: (§1) γ-Retroviral transduction Assay with Jurkat and CD4+ T cells: The effect of peptide fibrils on retroviral transduction of Jurkat cells was analyzed 3 days post transduction by determining the percentage of GFP + cells by flow cytometry. The assay was conducted according prior art procedures.

CD4+ T cells [7] = experiment: as above; type: cell-based, Human
Description: as §1
Human CD4+ T cells were isolated from a Buffy coat using RosetteSep™ Human CD4+ Enrichment Cocktail ([…] Technologies) according to manufacturer's protocol. Isolated T cells were activated using Dynabeads™ Human T-Activator CD3/CD28 (GibcoTM) according to manufacturer's protocol in presence of 10 ng mL^-1 IL-2 (Miltenyi Biotec) for three days. After 3 days the magnetic Dynabeads were removed using a magnet and T cells were cultured in presence of 9 ng mL^-1 IL-7 (Miltenyi Biotec) and 10 ng mL^-1 IL-15 (Miltenyi Biotec). After 1 day 5×10^5 T cells were transduced with GALV-γ-RV in absence and presence of PA1, PA2, EF-C (0.26, 1.3 and 6.5 µM) and Vectofusin®-1 (10 µg mL^-1; Miltenyi Biotec), or RetroNectin (20 µg mL^-1; Takara Bio). […] After 3 days GFP+ T cells were analyzed by flow cytometry. Viability was determined using LIVE/DEAD™ Fixable Aqua Dead Cell Stain Kit (ThermoFisher Scientific) according to manufacturer's protocol.

[8] = Fluorescence microscopy of ThT-stained fibrils (µm-sized aggregates); type: physicochemical
In short: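 Fibrils (1 mg mL^-1) mixed 1:9 with 50 µM ThT, giving 0.1 mg mL^-1 stained fibrils on glass. Imaged under 10x air objective with excitation 480/40 nm and emission 527/30 nm. Fibrils called distinct when no visible structures appeared in fluorescence or brightfield.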

HIV-1 = settings: for Infectivity enhancing N fold at 1.3 µM: relative to virus only;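 on all read-outs here: TZM-bl reporter cells exposed to HIV-1 with peptide fibrils, infection read out as β-galactosidase luminescence, compared with virus alone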
Description: HIV-1 Infection Assay with TZM-bl cells: The effect of peptide fibrils on HIV-1 infection was studied via a luminescence assay for β-galactosidase, which was reported by TZM-bl cells upon infection. The HIV-1 infection assay was conducted in three technical replicates and repeated in three independent experiments unless stated otherwise.

CD4+ T cells [9] = settings: 3 days; 1 µg peptide added to 250,000 cells
Description: Confocal laser scanning microscopy and degradation study with PA1-3 and CD4+ T cells: The degradation of the peptide assemblies on CD4+ T cells was determined by analyzing fluorescence microscopy images. To this end, 4 µL of the preassembled peptide fibrils EF-C, PA1 and PA2 (1 mg mL^-1, 1 d in PBS) were mixed with 4 µL of Proteostat (Enzo Life Science, 1 µL stock in 99 µL PBS) and incubated for 15 min. 2 µL of the stained fibrils were added to 198 µL preactivated and nucleus stained (Hoechst 33342) CD4+ T cells (200 µL, 0.25×10^6 resulting in a final 5 µg mL^-1concentration of the peptide. After incubation for 30 min at 37°C the cells were washed with 3x with PBS and incubated in medium (supplemented RPMI containing IL-15 and 7). Microscopy was conducted on a Zeiss LSM 710 confocal microscope with 20x and 63x objective and laser excitation wavelengths of 405 nm (Hoechst) and 561 nm (Proteostat). The measurements were performed after 30 min and 3 d of incubation at 37°C without any washing step in between. […]
The evaluation of aggregate size and number was conducted by analyzing Proteostat-stained aggregates via the 3D objects counter function of ImageJ 1.53f51 for 6 individual measurements (area 581.25 µm × 581.25 µm) of three individually repeated experiments. […] The degradation of the peptide assemblies on CD4+ T cells was determined by analyzing fluorescence microscopy images. […]

[10] = Zeta-potential measurement (dynamic light scattering); type: physicochemical

Compound	zeta-potential (in words) [1]	Zeta Potential / mV [1]	Count Rate / kcps [1] [kcps]	ThT [2]	N-fold ThT-fluorescence [2]	β-sheet content / % [3] [%]	Assembly without hydrophob residue [4]	Assembly [4]	Fibril Formation ([4]; hydrophobic moiety exchange)	degraded over the course of 3 days in the presence of HeLa cells (HeLa cells [5]) [%]	association with cellular membranes (HeLa cells [5])	Degradability / % (rel. to initial particles > 10 µm^2) (HeLa cells [6]; HeLa cells) [%]	aggregate number decreases / degraded in presence of HeLa cells within 3 days (HeLa cells [6])	transduction enhancement (in words) (Jurkat cells)	transduction enhancement (in words) (CD4+ T cells [7])	formation of µm-sized aggregates in aqueous medium / PBS (in words) [8]	Infectivity enhancing N fold at 1.3 µM (HIV-1) [N fold]	Zeta-Potential / mV [10] [mV]	TEM morphology (in words) [4]	other results
CCCCCCCCCCCCCCCC(=O)N[C@H](C(=O)N[C@H](C(=O)N[C@H](C(=O)N[C@@H](C)C(=O)N[C@@H](C)C(=O)N[C@@H](C)C(=O)N[C@@H](CCCCN)C(=O)N[C@@H](CCCCN)C(=O)N[C@@H](CCCCN)C(N)=O)C(C)C)C(C)C)C(C)C [PA1] (Palmitoyl-VVVAAAKKK-NH2)	positive zeta-potential	+22.2 ± 0.7 mV	3138.4	+	278.7	57	No	Yes	1	94	association with cellular membranes	94	87% and 94%	strong transduction enhancement similar to EF-C	activity in the range of commercially available gold-standard enhancers RetroNectin and Vectofusin-1	formation of µm-sized aggregates; also recorded: microscopic clusters of fibrils were formed	10±3	22.2	–	Fibril Formation ([4]; linkage chemistry exchange): 1; degradation of aggregates by CD4+ T cells (in words) (CD4+ T cells [9]): almost all small aggregates of PA1 (SEQ ID NO. 4) are degraded by CD4+ T cells
CCCCCCCCCCCCCCCC(=O)N[C@H](C(=O)N[C@H](C(=O)N[C@H](C(=O)N[C@@H](C)C(=O)N[C@@H](C)C(=O)N[C@@H](C)C(=O)N[C@@H](CCC(=O)O)C(=O)N[C@@H](CCC(=O)O)C(=O)N[C@@H](CCC(=O)O)C(N)=O)C(C)C)C(C)C)C(C)C [PA3] (Palmitoyl-VVVAAAEEE-NH2)	negative zeta-potential	-29.8 ± 2.7 mV	–	+	–	61	–	–	–	–	did not associate with cells	–	–	–	–	does not form µm-sized aggregates in PBS; also recorded: did not bundle or adopt µm-sized aggregates in PBS	–	–	distinct fibrils	enhancement of HIV-1 infection / transduction (in words) (HIV-1; 6.5 µM, 1.3 µM, 0.26 µM): no transduction enhancement
CCCCCCCCCCCCCCCC(=O)N[C@@H](Cc1ccccc1)C(=O)N[C@@H](CCC(N)=O)C(=O)N[C@@H](Cc1ccccc1)C(=O)N[C@@H](CCCCN)C(=O)N[C@@H](Cc1ccccc1)C(=O)N[C@@H](CCCCN)C(=O)N[C@@H](CS)C(N)=O [PA2, C16-FQFKFKC-NH2] (Palmitoyl-FQFKFKC-NH2)	positive zeta-potential	+19.2 ± 3.4 mV	–	+	–	59	–	–	–	53	association with cellular membranes	–	–	strong transduction enhancement similar to EF-C	activity in the range of commercially available gold-standard enhancers RetroNectin and Vectofusin-1	formation of µm-sized aggregates; also recorded: microscopic clusters of fibrils were formed	–	–	–	–
CCCCCCCCCCCC(=O)N[C@H](C(=O)N[C@H](C(=O)N[C@H](C(=O)N[C@@H](C)C(=O)N[C@@H](C)C(=O)N[C@@H](C)C(=O)N[C@@H](CCCCN)C(=O)N[C@@H](CCCCN)C(=O)N[C@@H](CCCCN)C(N)=O)C(C)C)C(C)C)C(C)C [Pat7] (Lauroyl-VVVAAAKKK-NH2)	positive zeta-potential	–	3558.1	–	185.7	–	No	Yes	1	–	–	-32	32%	–	–	form µm-sized aggregates	6±1	19.4	able to form fibrils; also recorded: fibrillar morphologies	β-sheet amount ([3]; 1 mg/mL in PBS lyophilized, integral at 1630 cm^-1 relative to 1650-1700 cm^-1): 49%; association with cellular membranes (HeLa cells [6]; 2 µg added to 20.000 HeLa cells, 30 min): association with cellular membranes; degradability (in words) (HeLa cells [6]; HeLa cells, 3 days): non-degradable PA; fluorescent, µm-sized aggregates (ThT staining) ([8]; 1 mg/mL stained with 50 µM ThT): fluorescent, µm-sized aggregates; enhances infectivity at 1.3 µM concentration, times more efficient compared to virus only infection (HIV-1): 6 times
